Structures can show the parent of a compound that is named as a salt.
Tests used:
α2-adrenoceptors = system: α2-adrenoceptors; set-up: species or system rat
[1] = system: bisected rat prostatic vas deferens

## NC[C@H](O)c1ccc(O)c(O)c1 [noradrenaline, (−)-noradrenaline bitartrate]
α2-adrenoceptors
  −log IC50 of noradrenaline for inhibition of the response to electrical stimulation: 5.96±0.052

## COc1cc2nc(N3CCN(C(=O)c4ccco4)CC3)nc(N)c2cc1OC [prazosin, prazosin hydrochloride]
[1]
  effect on second phase of the contraction: inhibited

## Cc1ccc(C(=O)Nc2ccc(S(=O)(=O)O)c3cc(S(=O)(=O)O)cc(S(=O)(=O)O)c23)cc1NC(=O)c1cccc(NC(=O)Nc2cccc(C(=O)Nc3cc(C(=O)Nc4ccc(S(=O)(=O)O)c5cc(S(=O)(=O)O)cc(S(=O)(=O)O)c45)ccc3C)c2)c1 [suramin]
[1]; 0.3 mM
  effect on initial phase of the contraction: sensitive

## NC1=N[C@H](O)[C@H]2[C@H]3O[C@]4(O)O[C@@H]([C@@H](O)[C@@]2(N1)[C@@H]4O)[C@]3(O)CO [tetrodotoxin]
[1]
  effect on contractions evoked by field stimulation: abolished

## CCLIPACRRNHKKFC [truncated ρ-TIA]
β1-adrenoceptor
  selective β1-adrenoceptor antagonist activity: inactive

Reference: US6849601B1 (priority 1998, dated 2005)
